Assay results: the supplement of paper PMC10307832

Assays:
Test in all cases: relative viability (nuclei count vs DMSO), 5 days (fraction); higher = more cells survive
[1] = system: LOU-NH91
In short: (§1)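 Lung cancer cell lines were seeded in 1536-well plates and dosed by pin tool the next day, with either a single drug or a fixed anchor-drug dose combined with five library-drug doses (not always all listed) spaced in √10 steps. Five days later, one step fixed the cells and stained their nuclei (final 0.05% Triton X-100, 1% formaldehyde, 1 ug/ml Hoechst), and nuclei were counted on 4× images. Relative viability is the nuclei count in treated wells divided by the count in vehicle wells, and each value is the median of duplicate plates.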

[2] = system: NCI-H1650
In short: as §1

[3] = system: COR-L 105
In short: as §1

[4] = system: NCI-H441
In short: as §1

[5] = system: PC-14
In short: as §1

[6] = system: HARA
In short: as §1

[7] = system: NCI-H3122
In short: as §1

[8] = system: BEN
In short: as §1

[9] = system: CAL-12T
In short: as §1

[10] = system: EKVX
In short: as §1

[11] = system: NCI-H2170
In short: as §1

[12] = system: NCI-H727
In short: as §1

[13] = system: NCI-H2009
In short: as §1

[14] = system: ABC-1
In short: as §1

[15] = system: NCI-H661
In short: as §1

[16] = system: NCI-H1437
In short: as §1

[17] = system: NCI-H460
In short: as §1

[18] = system: LK-2
In short: as §1

[19] = system: NCI-H1666
In short: as §1

[20] = system: SW 900
In short: as §1

[21] = system: HCC-366
In short: as §1

[22] = system: 201T
In short: as §1

`Cc1sc2c(c1C)C(c1ccc(Cl)cc1)=N[C@@H](CC(=O)OC(C)(C)C)c1nnc(C)n1-2` [JQ1] + Cc1nc(Nc2ncc(C(=O)Nc3c(C)cccc3Cl)s2)cc(N2CCN(CCO)CC2)n1 [Dasatinib] (partner 0.075 µM) gave a relative viability ([1]; first compound 0.04 µM) of 0.549, a relative viability ([1]; first compound 0.1265 µM) of 0.463 and a relative viability ([1]; first compound 0.4 µM) of 0.324. It also gave a relative viability ([1]; first compound 1.265 µM) of 0.326, a relative viability ([1]; first compound 4 µM) of 0.354 and a relative viability ([2]; first compound 0.04 µM) of 0.313. The relative viability ([2]; first compound 0.1265 µM) was 0.272, the relative viability ([2]; first compound 0.4 µM) was 0.201 and the relative viability ([2]; first compound 1.265 µM) was 0.134. It also gave a relative viability ([2]; first compound 4 µM) of 0.143, a relative viability ([3]; first compound 0.04 µM) of 0.297 and a relative viability ([3]; first compound 0.1265 µM) of 0.186. It also gave a relative viability ([3]; first compound 0.4 µM) of 0.156, a relative viability ([3]; first compound 1.265 µM) of 0.119 and a relative viability ([3]; first compound 4 µM) of 0.132. It also gave a relative viability ([4]; first compound 0.04 µM) of 0.558, a relative viability ([4]; first compound 0.1265 µM) of 0.572 and a relative viability ([4]; first compound 0.4 µM) of 0.634. It also gave a relative viability ([4]; first compound 1.265 µM) of 0.273, a relative viability ([4]; first compound 4 µM) of 0.209 and a relative viability ([5]; first compound 0.04 µM) of 0.283. It also gave a relative viability ([5]; first compound 0.1265 µM) of 0.187, a relative viability ([5]; first compound 0.4 µM) of 0.119 and a relative viability ([5]; first compound 1.265 µM) of 0.14. For the same compound, the relative viability ([5]; first compound 4 µM) was 0.05, the relative viability ([6]; first compound 0.04 µM) was 0.207 and the relative viability ([6]; first compound 0.1265 µM) was 0.242. The relative viability ([6]; first compound 0.4 µM) was 0.309, the relative viability ([6]; first compound 1.265 µM) was 0.236 and the relative viability ([6]; first compound 4 µM) was 0.247. For the same compound, the relative viability ([7]; first compound 0.04 µM) was 0.777, the relative viability ([7]; first compound 0.1265 µM) was 0.551 and the relative viability ([7]; first compound 0.4 µM) was 0.582. For the same compound, the relative viability ([7]; first compound 1.265 µM) was 0.463, the relative viability ([7]; first compound 4 µM) was 0.209 and the relative viability ([8]; first compound 0.04 µM) was 0.302. For the same compound, the relative viability ([8]; first compound 0.1265 µM) was 0.307, the relative viability ([8]; first compound 0.4 µM) was 0.309 and the relative viability ([8]; first compound 1.265 µM) was 0.274. It also gave a relative viability ([8]; first compound 4 µM) of 0.217, a relative viability ([9]; first compound 0.04 µM) of 0.427 and a relative viability ([9]; first compound 0.1265 µM) of 0.332. It also gave a relative viability ([9]; first compound 0.4 µM) of 0.228, a relative viability ([9]; first compound 1.265 µM) of 0.144 and a relative viability ([9]; first compound 4 µM) of 0.213. It also gave a relative viability ([10]; first compound 0.04 µM) of 0.517, a relative viability ([10]; first compound 0.4 µM) of 0.473 and a relative viability ([10]; first compound 1.265 µM) of 0.45. For the same compound, the relative viability ([10]; first compound 4 µM) was 0.417, the relative viability ([11]; first compound 0.04 µM) was 0.57 and the relative viability ([11]; first compound 0.1265 µM) was 0.47. For the same compound, the relative viability ([11]; first compound 0.4 µM) was 0.392, the relative viability ([11]; first compound 1.265 µM) was 0.334 and the relative viability ([11]; first compound 4 µM) was 0.305. It also gave a relative viability ([12]; first compound 0.04 µM) of 0.354, a relative viability ([12]; first compound 0.1265 µM) of 0.555 and a relative viability ([12]; first compound 0.4 µM) of 0.398. For the same compound, the relative viability ([12]; first compound 1.265 µM) was 0.295, the relative viability ([12]; first compound 4 µM) was 0.426 and the relative viability ([13]; first compound 0.04 µM) was 0.258. It also gave a relative viability ([13]; first compound 0.1265 µM) of 0.156, a relative viability ([13]; first compound 0.4 µM) of 0.196 and a relative viability ([13]; first compound 1.265 µM) of 0.154. The relative viability ([13]; first compound 4 µM) was 0.185, the relative viability ([14]; first compound 0.04 µM) was 0.583 and the relative viability ([14]; first compound 0.1265 µM) was 0.413. It also gave a relative viability ([14]; first compound 0.4 µM) of 0.417, a relative viability ([14]; first compound 1.265 µM) of 0.429 and a relative viability ([14]; first compound 4 µM) of 0.333. For the same compound, the relative viability ([15]; first compound 0.04 µM) was 0.814, the relative viability ([15]; first compound 0.1265 µM) was 0.564 and the relative viability ([15]; first compound 0.4 µM) was 0.558. The relative viability ([15]; first compound 1.265 µM) was 0.379, the relative viability ([15]; first compound 4 µM) was 0.556 and the relative viability ([16]; first compound 0.04 µM) was 0.394. It also gave a relative viability ([16]; first compound 0.1265 µM) of 0.365, a relative viability ([16]; first compound 0.4 µM) of 0.263 and a relative viability ([16]; first compound 1.265 µM) of 0.217. For the same compound, the relative viability ([16]; first compound 4 µM) was 0.244, the relative viability ([17]; first compound 0.04 µM) was 0.5 and the relative viability ([17]; first compound 0.1265 µM) was 0.221. The relative viability ([17]; first compound 0.4 µM) was 0.201, the relative viability ([17]; first compound 1.265 µM) was 0.171 and the relative viability ([17]; first compound 4 µM) was 0.075. The relative viability ([18]; first compound 0.04 µM) was 0.254, the relative viability ([18]; first compound 0.1265 µM) was 0.156 and the relative viability ([18]; first compound 0.4 µM) was 0.162. It also gave a relative viability ([18]; first compound 1.265 µM) of 0.108, a relative viability ([18]; first compound 4 µM) of 0.112 and a relative viability ([19]; first compound 0.04 µM) of 0.791. It also gave a relative viability ([19]; first compound 0.1265 µM) of 0.593, a relative viability ([19]; first compound 0.4 µM) of 0.587 and a relative viability ([19]; first compound 1.265 µM) of 0.554. The relative viability ([19]; first compound 4 µM) was 0.504, the relative viability ([20]; first compound 0.04 µM) was 0.521 and the relative viability ([20]; first compound 0.1265 µM) was 0.456. For the same compound, the relative viability ([20]; first compound 0.4 µM) was 0.298, the relative viability ([20]; first compound 1.265 µM) was 0.193 and the relative viability ([20]; first compound 4 µM) was 0.135. The relative viability ([21]; first compound 0.04 µM) was 0.667, the relative viability ([21]; first compound 0.4 µM) was 0.599 and the relative viability ([21]; first compound 1.265 µM) was 0.368. It also gave a relative viability ([21]; first compound 4 µM) of 0.324, a relative viability ([22]; first compound 0.04 µM) of 0.606 and a relative viability ([22]; first compound 0.1265 µM) of 0.428. The relative viability ([22]; first compound 0.4 µM) was 0.508, the relative viability ([22]; first compound 1.265 µM) was 0.491 and the relative viability ([22]; first compound 4 µM) was 0.372.
